Experiments:
[1] = target: Dual specificity mitogen-activated protein kinase kinase 4 (Homo sapiens) (UniProt P45985); details: Compound concentration 1000.0 nM
[2] = target: Tyrosine-protein kinase Lyn (Homo sapiens) (UniProt P07948); details: Compound concentration 1000.0 nM
[3] = tested on: Proto-oncogene tyrosine-protein kinase receptor Ret (Homo sapiens), P07949 [M918T]; details: Compound concentration 1000.0 nM
[4] = target: Alpha-1A adrenergic receptor (Homo sapiens) (UniProt P35348); details: Compound concentration 10.0 uM
[5] = target: Beta-3 adrenergic receptor (Homo sapiens) (UniProt P13945); details: Compound concentration 10.0 uM
[6] = target: Mitogen-activated protein kinase 14 (Homo sapiens) (UniProt Q16539); details: Compound concentration 1000.0 nM
[7] = target: Serine/threonine-protein kinase NLK (Homo sapiens) (UniProt Q9UBE8); details: Compound concentration 1000.0 nM
[8] = target: Serine/threonine-protein kinase tousled-like 1 (Homo sapiens) (UniProt Q9UKI8); details: Compound concentration 1000.0 nM
[9] = target: Receptor tyrosine-protein kinase erbB-4 (Homo sapiens) (UniProt Q15303); details: Compound concentration 1000.0 nM
[10] = target: Tyrosine-protein kinase Fgr (Homo sapiens) (UniProt P09769); details: Compound concentration 1000.0 nM
[11] = target: Receptor tyrosine-protein kinase erbB-2 (Homo sapiens) (UniProt P04626); details: Compound concentration 1000.0 nM
[12] = target: Serine/threonine-protein kinase PknB (Mycobacterium tuberculosis) (UniProt P9WI81); details: Compound concentration 1000.0 nM
[13] = target: Serine/threonine-protein kinase WNK4 (Homo sapiens) (UniProt Q96J92); details: Compound concentration 1000.0 nM
[14] = target: Mitogen-activated protein kinase kinase kinase 6 (Homo sapiens) (UniProt O95382); details: Compound concentration 1000.0 nM
[15] = target: Muscarinic acetylcholine receptor M5 (Homo sapiens) (UniProt P08912); details: Compound concentration 10.0 uM
[16] = target: Serine/threonine-protein kinase Nek1 (Homo sapiens) (UniProt Q96PY6); details: Compound concentration 1000.0 nM
[17] = target: Muscarinic acetylcholine receptor M4 (Homo sapiens) (UniProt P08173); details: Compound concentration 10.0 uM
[18] = target: Serine/threonine-protein kinase Nek6 (Homo sapiens) (UniProt Q9HC98); details: Compound concentration 1000.0 nM
[19] = target: MAP kinase-activated protein kinase 5 (Homo sapiens) (UniProt Q8IW41); details: Compound concentration 1000.0 nM
[20] = target: Alpha-1A adrenergic receptor (Homo sapiens, UniProt P35348); assay: GPCRScan assay: inhibition of Alpha1A; set-up: radioligand conc. used [nm] 0.2 - 1.0, parental cells stable HEK
[21] = target: Casein kinase I isoform gamma-3 (Homo sapiens) (UniProt Q9Y6M4); details: Compound concentration 1000.0 nM
[22] = target: Ribosomal protein S6 kinase alpha-2 (Homo sapiens) (UniProt Q15349); details: Compound concentration 1000.0 nM
[23] = target: Cyclin-dependent kinase 18 (Homo sapiens) (UniProt Q07002); details: Compound concentration 1000.0 nM
[24] = target: Platelet-derived growth factor receptor alpha (Homo sapiens) (UniProt P16234); details: Compound concentration 1000.0 nM
[25] = target: Alpha-2B adrenergic receptor (Homo sapiens) (UniProt P18089); details: Compound concentration 10.0 uM
[26] = target: Mast/stem cell growth factor receptor Kit (Homo sapiens) (UniProt P10721); details: Compound concentration 1000.0 nM
[27] = target: Alpha-1D adrenergic receptor (Homo sapiens, UniProt P25100); assay: GPCRScan assay: inhibition of Alpha1D; set-up: radioligand conc. used [nm] 0.3 – 1.0, parental cells stable
[28] = target: Phosphatidylinositol 4,5-bisphosphate 3-kinase catalytic subunit alpha isoform (Homo sapiens) (UniProt P42336); details: Compound concentration 1000.0 nM
[29] = tested on: ALK tyrosine kinase receptor (Homo sapiens), Q9UM73 [C1156Y]; details: Compound concentration 1000.0 nM
[30] = target: RAC-alpha serine/threonine-protein kinase (Homo sapiens) (UniProt P31749); details: Compound concentration 1000.0 nM
[31] = target: Glycogen synthase kinase-3 beta (Homo sapiens) (UniProt P49841); details: Compound concentration 1000.0 nM
[32] = target: Alpha-1D adrenergic receptor (Rattus norvegicus) (UniProt P23944); assay: Inhibition of phenylephrine-induced contractions in bladder strips from rats with bladder outlet obstruction; format: tissue-based; details: Urinary bladder
[33] = target: Alpha-2B adrenergic receptor (Homo sapiens, UniProt P18089); assay: alpha2B Eurofins-Panlabs ligand profiling
[34] = target: Beta-2 adrenergic receptor (Homo sapiens) (UniProt P07550); assay: beta2 Eurofins-Panlabs ligand profiling; details: Compound concentration 10.0 uM
[35] = target: Serotonin 1 (5-HT1) receptor (Homo sapiens) (UniProt P30939+P28222+P08908+P28221+P28566); assay: 5-HT1 Eurofins-Panlabs ligand profiling; format: protein assay; details: Compound concentration 10.0 uM
[36] = target: T1, Alpha-2C adrenergic receptor (Homo sapiens) (UniProt P18825); assay: alpha2C Eurofins-Panlabs ligand profiling; details: Compound concentration 10.0 uM
T1 sequence (whole entry): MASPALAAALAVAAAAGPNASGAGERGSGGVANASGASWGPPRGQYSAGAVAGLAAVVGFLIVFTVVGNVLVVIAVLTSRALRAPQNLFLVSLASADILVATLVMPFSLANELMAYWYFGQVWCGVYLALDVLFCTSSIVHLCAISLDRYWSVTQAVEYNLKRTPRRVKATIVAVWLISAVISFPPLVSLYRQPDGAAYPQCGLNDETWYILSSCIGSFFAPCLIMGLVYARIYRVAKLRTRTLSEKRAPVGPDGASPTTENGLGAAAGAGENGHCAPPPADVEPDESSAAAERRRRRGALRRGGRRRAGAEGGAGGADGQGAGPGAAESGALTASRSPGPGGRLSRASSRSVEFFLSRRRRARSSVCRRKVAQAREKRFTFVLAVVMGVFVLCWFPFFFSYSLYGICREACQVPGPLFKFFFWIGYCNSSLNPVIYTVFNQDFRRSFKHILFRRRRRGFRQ

[37] = target: Beta-1 adrenergic receptor (Homo sapiens) (UniProt P08588); assay: beta1 Eurofins-Panlabs ligand profiling; details: Compound concentration 10.0 uM

Sequence of Muscarinic acetylcholine receptor M5 (Homo sapiens) (P08912 whole entry): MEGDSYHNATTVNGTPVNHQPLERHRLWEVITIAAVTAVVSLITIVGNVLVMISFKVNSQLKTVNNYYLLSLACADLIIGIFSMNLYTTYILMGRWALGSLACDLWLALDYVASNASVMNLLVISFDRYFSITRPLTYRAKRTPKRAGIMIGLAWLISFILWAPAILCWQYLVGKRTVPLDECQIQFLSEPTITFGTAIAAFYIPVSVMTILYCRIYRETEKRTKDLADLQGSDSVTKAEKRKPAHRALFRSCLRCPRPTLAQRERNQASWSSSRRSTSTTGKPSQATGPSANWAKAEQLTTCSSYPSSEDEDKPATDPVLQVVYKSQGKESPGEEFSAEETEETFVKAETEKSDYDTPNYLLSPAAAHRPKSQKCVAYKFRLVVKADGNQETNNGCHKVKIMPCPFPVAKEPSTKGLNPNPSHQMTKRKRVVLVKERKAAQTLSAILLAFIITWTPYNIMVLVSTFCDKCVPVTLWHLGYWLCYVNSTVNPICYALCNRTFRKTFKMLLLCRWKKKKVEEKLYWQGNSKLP
Sequence of Mitogen-activated protein kinase 14 (Homo sapiens) (Q16539 whole entry): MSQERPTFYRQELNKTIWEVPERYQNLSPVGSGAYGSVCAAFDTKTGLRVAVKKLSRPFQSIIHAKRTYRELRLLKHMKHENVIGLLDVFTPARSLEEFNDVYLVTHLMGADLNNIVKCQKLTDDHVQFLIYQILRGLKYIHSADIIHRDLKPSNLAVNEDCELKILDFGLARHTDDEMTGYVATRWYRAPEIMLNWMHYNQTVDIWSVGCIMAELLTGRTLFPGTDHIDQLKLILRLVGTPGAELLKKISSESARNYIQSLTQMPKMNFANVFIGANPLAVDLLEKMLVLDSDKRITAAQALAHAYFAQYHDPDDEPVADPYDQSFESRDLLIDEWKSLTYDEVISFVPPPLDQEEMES
Sequence of Serine/threonine-protein kinase Nek1 (Homo sapiens) (Q96PY6 whole entry): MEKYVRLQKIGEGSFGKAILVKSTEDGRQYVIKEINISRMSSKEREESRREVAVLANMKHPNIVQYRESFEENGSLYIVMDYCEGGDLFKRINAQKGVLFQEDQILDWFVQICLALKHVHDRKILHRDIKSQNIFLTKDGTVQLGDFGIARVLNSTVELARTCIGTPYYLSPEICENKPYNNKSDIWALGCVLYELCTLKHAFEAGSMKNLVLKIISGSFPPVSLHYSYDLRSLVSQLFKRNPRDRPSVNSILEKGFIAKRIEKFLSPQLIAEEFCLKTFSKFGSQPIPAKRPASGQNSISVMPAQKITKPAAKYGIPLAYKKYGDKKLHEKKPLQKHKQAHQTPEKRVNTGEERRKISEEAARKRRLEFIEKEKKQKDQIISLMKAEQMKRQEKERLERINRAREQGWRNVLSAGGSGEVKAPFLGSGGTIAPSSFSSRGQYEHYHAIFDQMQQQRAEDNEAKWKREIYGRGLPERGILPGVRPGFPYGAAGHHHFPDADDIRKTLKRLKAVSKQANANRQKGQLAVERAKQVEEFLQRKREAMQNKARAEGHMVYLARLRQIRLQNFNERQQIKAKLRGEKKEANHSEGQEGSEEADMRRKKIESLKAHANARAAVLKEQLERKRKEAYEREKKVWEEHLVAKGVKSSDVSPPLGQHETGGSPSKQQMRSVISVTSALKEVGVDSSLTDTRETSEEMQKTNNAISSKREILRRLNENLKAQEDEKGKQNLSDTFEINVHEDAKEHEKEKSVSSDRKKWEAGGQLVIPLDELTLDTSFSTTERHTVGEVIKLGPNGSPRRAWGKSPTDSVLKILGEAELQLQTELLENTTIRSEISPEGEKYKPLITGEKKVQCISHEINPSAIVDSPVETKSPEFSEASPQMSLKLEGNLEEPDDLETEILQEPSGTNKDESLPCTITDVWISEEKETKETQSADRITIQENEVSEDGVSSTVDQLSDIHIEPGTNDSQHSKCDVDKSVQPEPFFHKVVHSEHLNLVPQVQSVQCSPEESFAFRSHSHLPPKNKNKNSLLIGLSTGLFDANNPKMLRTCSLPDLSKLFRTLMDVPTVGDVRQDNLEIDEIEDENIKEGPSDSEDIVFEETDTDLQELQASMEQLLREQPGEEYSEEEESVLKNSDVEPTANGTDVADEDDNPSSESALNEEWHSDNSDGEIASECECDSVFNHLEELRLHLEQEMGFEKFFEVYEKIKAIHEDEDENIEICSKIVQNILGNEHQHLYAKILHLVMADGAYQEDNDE
Sequence of Phosphatidylinositol 4,5-bisphosphate 3-kinase catalytic subunit alpha isoform (Homo sapiens) (P42336 whole entry, canonical isoform): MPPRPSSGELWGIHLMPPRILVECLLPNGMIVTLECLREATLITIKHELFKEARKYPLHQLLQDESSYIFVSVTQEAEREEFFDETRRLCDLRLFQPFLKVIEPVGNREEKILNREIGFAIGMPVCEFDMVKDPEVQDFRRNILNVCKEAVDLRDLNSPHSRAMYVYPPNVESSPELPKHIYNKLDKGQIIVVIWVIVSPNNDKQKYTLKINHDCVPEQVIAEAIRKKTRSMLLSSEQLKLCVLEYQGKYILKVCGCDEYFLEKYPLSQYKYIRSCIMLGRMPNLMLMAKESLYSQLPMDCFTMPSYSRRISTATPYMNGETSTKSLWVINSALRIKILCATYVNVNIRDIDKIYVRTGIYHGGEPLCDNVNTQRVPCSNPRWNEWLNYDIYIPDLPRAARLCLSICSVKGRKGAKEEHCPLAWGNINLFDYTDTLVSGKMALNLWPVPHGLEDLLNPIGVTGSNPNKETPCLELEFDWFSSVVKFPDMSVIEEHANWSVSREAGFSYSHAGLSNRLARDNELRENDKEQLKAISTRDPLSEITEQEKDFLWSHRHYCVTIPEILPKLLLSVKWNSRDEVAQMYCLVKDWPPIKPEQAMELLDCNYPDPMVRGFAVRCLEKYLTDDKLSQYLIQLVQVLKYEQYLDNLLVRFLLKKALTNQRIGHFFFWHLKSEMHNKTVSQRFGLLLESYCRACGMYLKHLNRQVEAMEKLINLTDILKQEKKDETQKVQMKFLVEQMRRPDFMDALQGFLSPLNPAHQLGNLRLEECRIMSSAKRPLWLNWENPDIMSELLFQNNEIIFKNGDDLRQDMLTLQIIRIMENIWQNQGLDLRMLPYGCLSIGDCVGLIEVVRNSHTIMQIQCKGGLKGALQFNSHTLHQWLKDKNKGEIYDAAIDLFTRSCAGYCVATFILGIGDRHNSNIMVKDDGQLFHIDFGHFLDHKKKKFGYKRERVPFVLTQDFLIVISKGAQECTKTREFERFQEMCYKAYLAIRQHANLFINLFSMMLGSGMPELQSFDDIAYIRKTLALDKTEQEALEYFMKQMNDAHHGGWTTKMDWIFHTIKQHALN
Sequence of Serine/threonine-protein kinase tousled-like 1 (Homo sapiens) (Q9UKI8 whole entry): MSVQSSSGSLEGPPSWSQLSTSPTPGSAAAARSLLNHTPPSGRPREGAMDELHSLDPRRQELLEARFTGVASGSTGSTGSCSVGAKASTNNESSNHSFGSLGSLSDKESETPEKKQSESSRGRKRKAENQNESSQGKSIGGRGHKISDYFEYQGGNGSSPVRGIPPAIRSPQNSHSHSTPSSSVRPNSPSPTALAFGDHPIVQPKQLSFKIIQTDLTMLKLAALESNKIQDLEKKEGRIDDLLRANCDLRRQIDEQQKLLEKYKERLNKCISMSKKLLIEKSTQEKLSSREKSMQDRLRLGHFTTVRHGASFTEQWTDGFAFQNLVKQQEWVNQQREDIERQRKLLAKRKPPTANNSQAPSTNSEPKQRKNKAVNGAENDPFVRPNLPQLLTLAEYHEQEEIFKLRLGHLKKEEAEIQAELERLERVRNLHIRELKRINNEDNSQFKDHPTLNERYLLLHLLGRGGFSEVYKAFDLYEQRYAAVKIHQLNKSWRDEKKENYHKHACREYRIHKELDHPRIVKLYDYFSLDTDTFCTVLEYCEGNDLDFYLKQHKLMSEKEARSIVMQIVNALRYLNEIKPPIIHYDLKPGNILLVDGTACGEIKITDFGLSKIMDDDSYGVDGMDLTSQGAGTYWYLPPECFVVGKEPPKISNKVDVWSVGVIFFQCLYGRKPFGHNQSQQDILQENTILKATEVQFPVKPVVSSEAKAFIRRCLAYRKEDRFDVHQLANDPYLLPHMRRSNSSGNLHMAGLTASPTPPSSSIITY
Sequence of Serine/threonine-protein kinase PknB (Mycobacterium tuberculosis) (P9WI81 whole entry): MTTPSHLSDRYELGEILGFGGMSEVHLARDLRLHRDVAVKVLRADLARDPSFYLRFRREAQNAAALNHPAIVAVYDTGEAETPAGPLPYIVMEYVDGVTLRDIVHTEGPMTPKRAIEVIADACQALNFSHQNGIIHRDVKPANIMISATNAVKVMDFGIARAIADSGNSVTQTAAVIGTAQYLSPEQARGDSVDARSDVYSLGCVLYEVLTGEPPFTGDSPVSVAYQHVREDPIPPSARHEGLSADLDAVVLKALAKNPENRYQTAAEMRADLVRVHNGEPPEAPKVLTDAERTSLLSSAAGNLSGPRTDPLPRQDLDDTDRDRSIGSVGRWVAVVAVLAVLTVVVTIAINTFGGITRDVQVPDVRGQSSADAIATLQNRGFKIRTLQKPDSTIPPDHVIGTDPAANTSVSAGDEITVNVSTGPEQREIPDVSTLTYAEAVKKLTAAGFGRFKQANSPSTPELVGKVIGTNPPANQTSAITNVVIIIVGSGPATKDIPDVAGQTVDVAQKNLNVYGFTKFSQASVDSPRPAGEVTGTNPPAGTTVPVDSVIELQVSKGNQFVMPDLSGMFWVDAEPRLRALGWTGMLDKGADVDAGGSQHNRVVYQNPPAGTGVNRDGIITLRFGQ
Sequence of Serine/threonine-protein kinase Nek6 (Homo sapiens) (Q9HC98 whole entry): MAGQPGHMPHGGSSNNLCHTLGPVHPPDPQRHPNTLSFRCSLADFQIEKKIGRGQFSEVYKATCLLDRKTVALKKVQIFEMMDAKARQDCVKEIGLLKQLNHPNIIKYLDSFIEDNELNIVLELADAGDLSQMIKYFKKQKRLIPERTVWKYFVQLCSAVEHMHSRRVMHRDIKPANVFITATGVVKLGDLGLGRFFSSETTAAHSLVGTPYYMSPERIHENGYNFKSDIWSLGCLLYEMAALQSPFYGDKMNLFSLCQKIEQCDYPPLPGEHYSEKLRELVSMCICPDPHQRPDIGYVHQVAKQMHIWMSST

| Compound | residual activity [1] [%] | residual activity [2] [%] | residual activity [3] [%] | residual activity [6] [%] | residual activity [7] [%] | residual activity [8] [%] | residual activity [9] [%] | residual activity [10] [%] | residual activity [11] [%] | residual activity [12] [%] | residual activity [13] [%] | residual activity [14] [%] | inhibition [15] [%] | residual activity [16] [%] | residual activity [18] [%] | residual activity [19] [%] | residual activity [21] [%] | residual activity [22] [%] | residual activity [23] [%] | residual activity [24] [%] | other results |
| --- | --- | --- | --- | --- | --- | --- | --- | --- | --- | --- | --- | --- | --- | --- | --- | --- | --- | --- | --- | --- | --- |
| C[C@@H](c1cccc(C#N)c1)n1cc(Cl)cc(C(N)=O)c1=N [(S)-9s] | 82 | 80 | 100 | 100 | 91 | 100 | 100 | 87 | 96 | 100 | 98 | 79 | -1.05 | 100 | 79 | 93 | 100 | 100 | 100 | 100 | inhibition [4]: 54.8%; inhibition [5]: -4.49%; inhibition [17]: -6.48%; Ki [20]: 1070 nM; inhibition [25]: 0.7%; residual activity [26]: 93%; Ki [27]: 1480 nM; residual activity [28]: 100%; residual activity [29]: 98%; residual activity [30]: 100%; residual activity [31]: 88% |
| C[C@H](c1cccc(C#N)c1)n1cc(Cl)cc(C(N)=O)c1=N [(R)-9s] | 100 | 81 | 91 | 100 | 44 | 94 | 100 | 80 | 100 | 89 | 97 | 91 | 3.44 | 100 | 94 | 84 | 100 | 62 | 100 | 94 | IC30 [32]: 15 nM; IC50 [33]: 1400 nM; inhibition [34]: 4%; inhibition [35]: 0%; inhibition [36]: 10%; residual activity [26]: 87%; inhibition [37]: -5%; residual activity [28]: 92%; residual activity [29]: 89%; residual activity [30]: 100%; residual activity [31]: 95% |

Reference: ChEMBL document CHEMBL4507301 (2021)
